Positions of bridges follow the written chain, without caps; N, C: chain ends. No end group written: not given here.
Legend:
chondrocytes [1] = experiment: Chondrocytes 3-dimensional cell cultures in alginate beads: proliferation (cell counts and 3H-thymidine incorporation); assay type: cell-based, dog
Description: Alginate head cultures were established as described by Guo, et al. Culture and growth characteristics of chondrocytes encapsulated in alginated beads. Connective Tissue Research 19:277–297 (1989). Briefly the cells were suspended in a solution of 1.25% (wt/vol) alginate in HEPES (20 mM HEPES buffer pH neutral) at a density of 2×10^6 cells/ml> The suspension of chondrocytes were slowly extruded through a 22-gauge needle in a dropwise manner into 40 ml of 0.1 M CaCl2 solution. After instantaneous gelation, the beads were allowed to further polymerise in CaCl2 solution (10 mins, room temperature). The beads were washed sequentially, twice in 0.15 M NaCl and twice in Dulbecco's modified Eagle's medium (DME). After the washing procedure, the beads were placed into 24-well culture plates (10 beads/well) and fed with 1 ml 10% fetal calf serum (FCS) SMW with 5μg/ml ascorbic acid. The cultures were maintained at 37° C. in a humidified atmosphere of 5% CO2 in air. The medium was changed every second day. […] Cell numbers were analysed at day 8 by exposing alginate beads to 50 mM ethylenediaminetetraacetic acid (EDTA) for approximately 10 minutes at 37° C. […] Tritiated-thymidine incorporation (^3H-thymidine) was assessed by pulsing the beads with ^3H-thymidine (1μCi/well) 48 hours before the end of experimental incubation. […] Pellets were resuspended and counted for radioactivity.

chondrocytes [2] = experiment: Chondrocyte monolayer cell cultures: proliferation (cell counts and [3H]-thymidine incorporation); assay type: cell-based, dog; settings: 24 hours
Description: Fresh cartilage samples were collected from the tibial plateaus and femoral condyles of mature, healthy crossbred dogs (2–4 years; 20–25 kg). The chondrocytes were isolated as previously described (Connective Tissue Research 1988; 18:205–222). Briefly, the chondrocytes were obtained by pronase and collagenase digestion of the cartilage, then the cells were centrifuged, washed and resuspended in media before being cultured in 75 cm^2 tissue culture flasks. The cells were incubated under 5% CO2 and 95% air at 37° C. Confluence was reached by 7–10 days, at which time the cells were subcultured. After trypsinization, the cells are rinsed and resuspended in fresh medium, then seeded at 5×10^4 cells/ml in 24-well plates (0.5 ml cell suspension per well, ie. 1.4×10^4 cells/cm^2). Proliferation studies (cell counts and thymidine incorporation) were performed. Subconfluent population were changed to serum-free medium with 0.1% bovine serum albumin plus the experimental compounds. Cell numbers were analysed at 24 hours after addition of the peptide or vehicle. The cell numbers were determined using a haemocytometer chamber. Results were expressed per well. [^3H]-thymidine incorporation was assessed by pulsing the cells with [^3H]-thymidine (1 uCi/well) two hours before the end of the experimental incubation. The experiment was terminated at 24 hours by washing the cells in media containing cold thymidine followed by the addition of 10% tricholoroacetic acid. The precipitate was washed twice with ethanol:ether (3:1) and the wells desiccated at room temperature. The residue was redissolved in 2 M KOH at 55° C. for 30 mins, neutralised with 1 M HCl, and an aliquot counted for radioactivity. Results were expressed as dpm per well. For both cell counts and thymidine incorporation, each experiment was performed at least 4 different times using experimental groups consisting of at least 6 wells.

[3] = test system: tibiae of normal adult male mice; experiment: In vivo study: daily subcutaneous injection in mice, tibial growth plate width and tibial length; settings: male Swiss mice, 300 ug/kg/injection s.c., 5 days/week for 4 weeks; for tibial (epiphyseal) growth plate width: mean±sem, controls 0.081-0.094 mm
Description: Two groups of 20 sexually mature male Swiss mice aged between 40 and 50 days and weighing 25–32 g, were given daily subcutaneous injections (50 ul) in the loose skin at the nape of the neck for 5 days/week over 4 consecutive weeks. The treated group was injected with peptide at a dose of 300 ug/kg/injection and the control group was injected with vehicle (water). Animals were housed in a room maintained at 20° C. on 12-hour light/dark cycles. They were fed diet 86 rodent pellets (New Zealand Stockfeed Ltd) ad libitum throughout the experiment. Each animal's weight was recorded at the beginning and end of the experiment. One day after the last injection, animals were sacrificed by cervical dislocation. They study had the approval of the local institutional review board.
The tibiae were dissected free of adherent tissue. Tibial lengths were recorded by measuring the distance between the proximal epiphysis and the distal tibio-fibular junction using an electronic micrometer (Digimatic Calipers, Mitutoyo, Japan). Bones were placed in 10% phosphate-buffered formalin for 24 hours and then dehydrated in a graded series of ethanol solutions and embedded, undecalcified, in methylmethacrylate resin. Tibiae were sectioned longitudinally through the frontal plane and calvariae were cut cross-sectionally at the base of the parietal bone. All sections were 4 um think and were cut on a Leitz microtome using a tungsten-carbide knife (Microknife Sharpening, Utah, USA). Sections were mounted on gelatin-coated slides and air-dried. They were stained with Goldner's tri-chrome and examined using an Olympus BX 50 microscope (Olympus Optical Co Ltd, Tokyo, Japan) which was attached to an Osteomeasure Image Analyzer (Osteometrics Inc. Atlanta, Ga.).
Tibial histomorphometric analyses were made from three adjacent sections one third of the way through the anterior/posterior depth of the proximal tibiae. Epiphyseal growth plate thickness was measured at three sites evenly spaced along its length. All measurements were made by one operator who was blinded to the treatment group of each bone.

Amylin (KCNTATCATQRLANFLVHSSNNFGAILSSTNVGSNTY; listed as Rattus norvegicus) [rat amylin sourced from Bachem California]
thymidine incorporation (DNA synthesis) (chondrocytes [1]; day 8, peptide 10^−10M, control 1135±85, p<0.001): 2584±229 dpm | cell numbers (chondrocytes [1]; day 8, per well, peptide 10^−10M, control 5.58±0.16, p<0.03): 6.07±0.05 ×10^4 | thymidine incorporation (DNA synthesis) (chondrocytes [2]; per well, amylin concentration not given, control 20725±997): 25937±1203 dpm | cell numbers (chondrocytes [2]; per well, mean±sem, amylin concentration not given, control 4.12±0.23, p=0.01): 5.11±0.21 ×10^4 | tibial (epiphyseal) growth plate width [3]: 0.108±0.003 mm | total length of the tibiae ([3]; control 11.31±0.07): 11.67±0.09 mm

Amylin-(1–8) (KCNTATCA-NH2; disulfide 2-7 (inferred); listed as Rattus norvegicus)
cell numbers (chondrocytes [2]; peptide 10–8M, control 3.23±0.11, p=0.02): 3.63±0.09 ×10^4 | thymidine incorporation (DNA synthesis) (chondrocytes [2]; peptide 10–8M, control 26859±423, p=0.02): 28932±628 dpm | tibial (epiphyseal) growth plate width [3]: 0.111 mm

Adrenomedullin (YRQSMNNFQGLRSFGCRFGTCTVQKLAHQIYQFTDKDKDNVAPRSKISPQGY-NH2; disulfide 16-21 (inferred); ends not checked; UniProt P35318 95-146, looked up) [52-amino acid peptide first described by Kitamura et al; synthesized by solid-phase procedures]
cell numbers (chondrocytes [2]; peptide 10^−9M, control 1.79±0.07, p<0.01): 2.27±0.12 ×10^4

Adrenomedullin-(27–52) (AHQIYQFTDKDKDNVAPRSKISPQGY; listed as Homo sapiens)
tibial (epiphyseal) growth plate width [3]: 0.11 mm

Reference: patent US7208469B2, “Therapeutic method” (Auckland UniServices Limited, priority 1997, dated 2007)
